Results as given in the supplement of paper PMC11451515.

System: P12-Ichikawa
Assay: cell viability relative to DMSO control; higher = less cytotoxic
Settings: 48 h
Method in brief: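 Viability is expressed as a percentage of DMSO wells within each plate, and cell-free wells serve as background. Seeding densities in the 1536-well plates (5 μl) were 500 cells/well for NOMO1 or SEM leukemia cells and 1000 cells/well for P12-Ichikawa. Each line was adapted for at least four passages in each medium. Library compounds in DMSO were pin-dosed at 47 μM to 0.79 nM (11 points, threefold), and CellTiter-Glo One luminescence was read after 48 h at 37°C.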

[1] = HPLM + 10% dialyzed FBS, 0.000781 µM
[2] = HPLM + 10% dialyzed FBS, 0.00234 µM
[3] = HPLM + 10% dialyzed FBS, 0.00702 µM
[4] = HPLM + 10% dialyzed FBS, 0.0211 µM
[5] = HPLM + 10% dialyzed FBS, 0.0632 µM
[6] = HPLM + 10% dialyzed FBS, 0.19 µM
[7] = HPLM + 10% dialyzed FBS, 0.569 µM
[8] = HPLM + 10% dialyzed FBS, 1.71 µM
[9] = HPLM + 10% dialyzed FBS, 5.12 µM
[10] = HPLM + 10% dialyzed FBS, 15.4 µM
[11] = HPLM + 10% dialyzed FBS, 46.1 µM
[12] = RPMI 5 mM glucose + 10% FBS, 0.000781 µM
[13] = RPMI 5 mM glucose + 10% FBS, 0.00234 µM
[14] = RPMI 5 mM glucose + 10% FBS, 0.00702 µM
[15] = RPMI 5 mM glucose + 10% FBS, 0.0211 µM
[16] = RPMI 5 mM glucose + 10% FBS, 0.0632 µM
[17] = RPMI 5 mM glucose + 10% FBS, 0.19 µM
[18] = RPMI 5 mM glucose + 10% FBS, 0.569 µM
[19] = RPMI 5 mM glucose + 10% FBS, 1.71 µM
[20] = RPMI 5 mM glucose + 10% FBS, 5.12 µM
[21] = RPMI 5 mM glucose + 10% FBS, 15.4 µM
[22] = RPMI 5 mM glucose + 10% FBS, 46.1 µM
[23] = RPMI 5 mM glucose + 10% dialyzed FBS, 0.000781 µM
[24] = RPMI 5 mM glucose + 10% dialyzed FBS, 0.00234 µM
[25] = RPMI 5 mM glucose + 10% dialyzed FBS, 0.00702 µM
[26] = RPMI 5 mM glucose + 10% dialyzed FBS, 0.0211 µM
[27] = RPMI 5 mM glucose + 10% dialyzed FBS, 0.0632 µM
[28] = RPMI 5 mM glucose + 10% dialyzed FBS, 0.19 µM
[29] = RPMI 5 mM glucose + 10% dialyzed FBS, 0.569 µM
[30] = RPMI 5 mM glucose + 10% dialyzed FBS, 1.71 µM
[31] = RPMI 5 mM glucose + 10% dialyzed FBS, 5.12 µM
[32] = RPMI 5 mM glucose + 10% dialyzed FBS, 15.4 µM
[33] = RPMI 5 mM glucose + 10% dialyzed FBS, 46.1 µM

SMILES | cell viability [1] | cell viability [2] | cell viability [3] | cell viability [4] | cell viability [5] | cell viability [6] | cell viability [7] | cell viability [8] | cell viability [9] | cell viability [10] | cell viability [11] | cell viability [12] | cell viability [13] | cell viability [14] | cell viability [15] | cell viability [16] | cell viability [17] | cell viability [18] | cell viability [19] | cell viability [20] | cell viability [21] | cell viability [22] | cell viability [23] | cell viability [24] | cell viability [25] | cell viability [26] | cell viability [27] | cell viability [28] | cell viability [29] | cell viability [30] | cell viability [31] | cell viability [32] | cell viability [33]
Cc1ccc([N+](=O)[O-])cc1[S+](=O)([O-])N(C)/N=C/c1cnc2ccc(Br)cn12 | 120% | 110% | 113% | 118% | 108% | 50.1% | 20.2% | 7.63% | 9.25% | 9.2% | 4.27% | 114% | 106% | 112% | 113% | 95.6% | 40.9% | 15.2% | 5.49% | 6.55% | 8.88% | 3.76% | 119% | 122% | 111% | 115% | 91.3% | 51% | 24.6% | 9.55% | 10.3% | 12.4% | 5.41%
NC(=O)[C@H]1CCS[C@@H]2C[C@]3(CCCN3C(=O)Cc3ccc(NC(=O)COc4ccc(Cl)cc4Cl)cc3)C(=O)N12 | 113% | 115% | 120% | 110% | 114% | 101% | 73.1% | 16.5% | 18.6% | 18.5% | 12.8% | 110% | 109% | 120% | 111% | 128% | 110% | 106% | 40.3% | 16.5% | 22.9% | 17.5% | 124% | 120% | 130% | 134% | 127% | 125% | 116% | 70.3% | 28.7% | 39.2% | 23.8%
OC1=CC=C(C=C1)\C2=C\OC3=C(C(=CC(=C3)O)O)C2=O | 107% | 114% | 112% | 118% | 114% | 116% | 119% | 118% | 118% | 117% | 122% | 103% | 104% | 116% | 107% | 116% | 126% | 116% | 125% | 115% | 115% | 85.9% | 103% | 105% | 108% | 112% | 119% | 114% | 120% | 116% | 95% | 113% | 69.5%
O=C(CS(=O)Cc1ccco1)NC/C=C\COc1cc(CN2CCCCC2)ccn1 (stereo not given) | 90.8% | 98.6% | 100% | 98% | 101% | 102% | 107% | 104% | 107% | 112% | 100% | 87.7% | 88% | 93.3% | 99.8% | 104% | 98.7% | – | 96.4% | 109% | 94.4% | 109% | 78.9% | 87.4% | 87.2% | 97.4% | 101% | 94.4% | 95.9% | 92.3% | 93.2% | 105% | 99.3%
COc1cc([C@@H](CC(=O)O)c2ccc(C)c(CN3C[C@@H](C)Oc4ccccc4[S+]3(=O)[O-])c2)cc2nnn(C)c12 | 108% | 115% | 114% | 110% | 109% | 110% | 115% | 109% | 96.6% | 12.6% | 10.5% | 115% | 114% | 118% | 106% | 126% | 113% | 121% | 111% | 101% | 84% | 67.4% | 114% | 122% | 115% | 125% | 114% | 112% | 116% | 116% | 104% | 94.7% | 70.7%
CN(C)C1=CC(=CC=C1)C\2=C\3C(=O)N(NC3=C/C(=O)N2C)C4=CC=CC=C4Cl | 114% | 112% | 106% | 111% | 113% | 95.8% | 90.3% | 10.8% | 4.69% | 4.7% | 7.14% | 113% | 122% | 116% | 110% | 117% | 110% | 103% | 25.7% | 9.73% | 8.05% | 15.8% | 122% | 114% | 114% | 112% | 120% | 109% | 102% | 41.3% | 21.1% | 16.6% | 23.9%
CCc1cc2c(cc1N1CCC(N3CCOCC3)CC1)C(C)(C)c1[nH]c3cc(C#N)ccc3c1C2=O | 100% | 99.5% | 110% | 130% | 138% | 130% | 131% | 121% | 116% | 115% | 65.3% | 73.7% | 73.3% | 97.2% | 134% | 126% | 124% | 130% | 100% | 110% | 107% | 102% | 86.2% | 81.9% | 108% | 127% | 136% | 128% | 125% | 118% | 109% | 122% | 96.5%
